Laboratory results taken from BindingDB's records for doi:10.1021/jm00095a005 (Pfizer, 1992).
pIC50: −log10 of the molar value.

Target: Platelet-activating factor receptor (Oryctolagus cuniculus)
Assay: In vitro inhibition of PAF-induced aggregation of rabbit washed platelets.

Row | SMILES | pIC50
1 | CCOC(=O)C1=C(c2ccc(-n3c(C)nc4cnccc43)cc2)N=C(C)C(C(=O)OC(C)(C)C)C1c1ccccc1Cl (stereo unspecified) | 8.89
2 | CCOC(=O)C1=C(c2ccc(-n3c(C)nc4ccncc43)cc2)N=C(C)C(C(=O)Nc2ccccn2)C1c1ccccc1Cl (stereo unspecified) | 7.66
3 | CCOC(=O)C1=C(c2ccc(-n3c(C(F)(F)F)nc4cnccc43)cc2)N=C(C)C(C(=O)Nc2ccccn2)C1c1ccccc1Cl (stereo unspecified) | 7.52
4 | CCOC(=O)C1=C(c2ccc(-c3ocnc3C)cc2)N=C(C)C(C(=O)Nc2ccccn2)C1c1ccccc1Cl (stereo unspecified) | 6.70
5 | CCOC(=O)C1=C(c2ccc(-n3c(C)nc4cnccc43)cc2)N=C(C)C(C(N)=O)C1c1ccccc1Cl (stereo unspecified) | 8.25
6 | CCOC(=O)C1=C(c2ccc(-n3ccnc3C)cc2)N=C(C)C(C(=O)Nc2ccccn2)C1c1ccccc1Cl (stereo unspecified) | 7.64
7 | CCOC(=O)C1=C(c2ccc(-n3c(C)nc4cnccc43)cc2)N=C(C)C(C(=O)O)C1c1ccccc1Cl (stereo unspecified) | 7.85
8 | CCOC(=O)C1=C(c2ccc(-n3c(C)nc4c(OC)ncnc43)cc2)N=C(C)C(C(=O)Nc2ccccn2)C1c1ccccc1Cl (stereo unspecified) | 6.57
9 | CCOC(=O)C1=C(c2ccc(-n3c(C)nc4cnccc43)cc2)N=C(C)C(C(=O)OC)C1c1ccccc1Cl (stereo unspecified) | 8.80
10 | CCOC(=O)C1=C(c2ccc(-n3c(C)nc4cnccc43)cc2)N=C(C)C(C(=O)NC(C)(C)C)C1c1ccccc1Cl (stereo unspecified) | 8.49
11 | CCOC(=O)C1=C(c2ccc(-n3c(C)nc4cnccc43)cc2)N=C(C)C(C(=O)Nc2ccccn2)C1c1ccc(C#N)cc1 (stereo unspecified) | 7.60
12 | CCOC(=O)C1=C(c2ccc(-n3nc(C)cc3C)cc2)N=C(C)C(C(=O)Nc2ccccn2)C1c1ccccc1Cl (stereo unspecified) | < 5.00
13 | CCOC(=O)C1=C(c2ccc(-n3c(C)nnc3C)cc2)N=C(C)C(C(=O)Nc2ccccn2)C1c1ccccc1Cl (stereo unspecified) | 7.92
14 | CCOC(=O)C1=C(c2ccc(-c3c(C)nc4ccccn34)cc2)N=C(C)C(C(=O)Nc2ccccn2)C1c1ccccc1Cl (stereo unspecified) | 8.68
15 | CCOC(=O)C1=C(c2ccc(-n3c(C)nc4cnccc43)cc2)N=C(C)C(C(=O)Nc2ccccn2)C1c1cccnc1 (stereo unspecified) | 7.48
16 | CCOC(=O)C1=C(c2ccc(-n3c(C)nc4cnccc43)cc2)N=C(C)C(C(=O)Nc2ccccn2)C1c1ccccn1 (stereo unspecified) | 7.85
17 | CCOC(=O)C1=C(c2ccc(-n3cnc(C)c3)cc2)N=C(C)C(C(=O)Nc2ccccn2)C1c1ccccc1Cl (stereo unspecified) | 6.24
18 | CCOC(=O)C1=C(c2ccc(-c3c(C)nc4sccn34)cc2)NC(C)=C(C(=O)Nc2ccccn2)C1c1ccccc1Cl (stereo unspecified) | 8.30
19 | CCOC(=O)C1=C(c2ccc(-n3c(C)nc4cnccc43)cc2)N=C(C)C(C(=O)Nc2ccccn2)C1c1cccnc1Cl (stereo unspecified) | 7.89
20 | CCOC(=O)C1=C(c2ccc(-n3cc(C)nc3C)cc2)N=C(C)C(C(=O)Nc2ccccn2)C1c1ccccc1Cl (stereo unspecified) | 7.89
21 | CCOC(=O)C1=C(c2ccc(-n3c(C)nc4cnccc43)cc2)N=C(C)C(C(=O)Nc2ccccn2)C1c1csc2ccccc12 (stereo unspecified) | 8.51
22 | CCOC(=O)C1=C(c2ccc(-n3c(C)nc4cnccc43)cc2)N=C(C)C(C(=O)Nc2ccccn2)C1c1cccc2c1OCO2 (stereo unspecified) | 8.49
23 | CCOC(=O)C1=C(c2ccc(-n3c(C)nc4c(C)nc(C)cc43)cc2)N=C(C)C(C(=O)Nc2ccccn2)C1c1ccccc1Cl (stereo unspecified) | 8.23
24 | CCCCc1nc2cnccc2n1-c1ccc(C2=C(C(=O)OCC)C(c3ccccc3Cl)C(C(=O)Nc3ccccn3)C(C)=N2)cc1 (stereo unspecified) | 6.72
25 | CCOC(=O)C1=C(c2ccc(-n3c(C)nc4cnccc43)cc2)N=C(C)C(C(=O)Nc2ccccn2)C1c1ccccc1OC(F)(F)F (stereo unspecified) | 8.64
26 | CCOC(=O)C1=C(c2ccc(-n3c(C)nc4cccnc43)cc2)N=C(C)C(C(=O)Nc2ccccn2)C1c1ccccc1Cl (stereo unspecified) | 7.55
